In patent publication US10556936B2, “Immunogenic proteins and fragments thereof from allergenic mites” (ALK-ABELLÓ A/S, priority 2016, dated 2020):

Test system: HDM-specific T cells expanded from PBMCs of HDM-allergic individuals
Experiment: T cell reactivity of peptides: IFN/IL-5 ELISPOT on in vitro expanded HDM-specific T cells
Type: cell-based, human
Conditions: for SFC/donor: individual peptides 10 μg/mL; for % responder: percentage of donors that produced a response against the peptide, 10 μg/mL
Method: Each sequence of an “L” cluster was aligned separately using the MEGA software tool with ClustalW. Fifteen-mer peptides overlapping by 10 amino acids were generated and the last 15-mer peptide was added when the sequence length was not divisible by 5, 14,783 unique peptides remained.
HLA class II binding predictions optimized for global coverage were performed for the seven class II alleles (HLA-DRB1*03:01, HLA-DRB1*07:01, HLA-DRB1*15:01, HLA-DRB3*01:01, HLA-DRB3*02:02, HLA-DRB4*01:01 and HLA-DRB5*01:01) using the standalone version of the IEDB class II binding prediction tool. The median consensus percentile rank was estimated from the consensus percentile ranks for the seven alleles. Further, peptides with more than ten overlapping amino acids, which appeared because several occurrences of some sequence regions were repeated multiple times in the same sequence, were eliminated (e.g. “[…]” was repeated seven times in one sequence.) Variant peptides were also removed, retaining the better peptide based on the median consensus percentile rank and conservation among the sequences within its respective cluster. Peptides with median consensus percentile rank ≤10.0 and conserved in ≥35% of sequences in the same cluster were finally selected, also including additional selected peptides chosen to maximize DRB1 allele coverage, for a grand total of 2,589 peptides.
Peptides were purchased from Mimotopes (Clayton, Victoria, Australia) or A and A (San Diego, Calif.) as crude material on a small (1-mg) scale. Individual peptides were resuspended in DMSO at a final concentration of 40 mg/mL. Peptide “megapools” of 30-65 peptides/pool were generated. Following lyophilization, each pool was reconstituted in DMSO so that each peptide was present at a concentration of 4 mg/mL. To facilitate deconvolution of positive megapools, each megapool was further broken down in 2-6 “mesopools” (259 mesopools in total), each containing 8-14 peptides. Each mesopool was then deconvoluted to identify individual positive peptides. To avoid dimerization and polymerization of peptides by intra- and intermolecular disulfide bond formation between cysteine residues, this amino acid were in some instances substituted by a serine residue in the peptides. Such peptides are herein marked with an asterisk (*).
PBMCs from European HDM-allergic individuals were recruited in the Copenhagen region (defined by clinical history of allergy to house dust mite and specific IgE to group 1 and group 2 major allergens from Der p and/or Der f and with measured specific IgE (CAP) >0.7 kU/L towards Der p/f 1 or Der p/f 2. In addition, PBMCs from 10 US HDM-allergic individuals were recruited in San Diego (defined by Der p extract IgE titers greater than 0.35 kUA/L). PBMCs were isolated from whole blood by density gradient centrifugation according to manufacturers' instructions (Ficoll-Hypaque, Amersham Biosciences, Uppsala, Sweden). Der p- and Der f-specific extract IgE titers were determined using the ImmunoCAP system (Thermo Fisher, Uppsala, Sweden). In a separate series of experiments, pooled plasma from 10 European and 10 American HDM atopic individuals from the San Diego region, respectively, was utilized to run 2D immunoblots to elucidate IgE and IgG reactivity towards the proteins, which had at least one peptide with positive T cell response.
HDM-specific T cells were expanded in vitro. Briefly, PBMCs from HDM-allergic individuals were stimulated with HDM extract (5 μg/mL) and expanded over 14-17 days with IL-2 (added every 3 days). Cells were harvested on day 14, restimulated with HDM extract (5 μg/mL), individual peptides (10 μg/mL) or peptide pools (5 μg/mL) and screened for […]/IL-5-production by ELISPOT. Criteria for positivity were 100 or 20 spot forming cells (SFCs) per 10^6 PBMCs for peptide pools or single peptides, respectively, p<0.05, and a stimulation index >2.

| Substance | SFC/donor [SFC/donor] | % responder [%] |
| --- | --- | --- |
| 124 (DINYVFFRSGSIIPI; Immunogenic fragment) [compound 124] | 20 | 10 |
| 101 (RHYNDQLHYNLHNLY; Immunogenic fragment) [compound 101] | 10 | 5 |
| 54 (FKLVAMKFMMASEDL; Immunogenic fragment) [compound 54] | 6 | 5 |
| 88 (MVYSDQLIHVTSRLP; Immunogenic fragment) [compound 88] | 3 | 5 |
| 65 (LISIPEFVRKIPGRK; Immunogenic fragment) [compound 65] | 6 | 5 |
| 57 (WEGLNAVKTGRVMLG; Immunogenic fragment) [compound 57] | 5 | 5 |
| 148 (TWWFDEAPMLSSSQY; Immunogenic fragment) [compound 148] | 21 | 10 |
| 150 (ELNSRFVYAKLRGAF; Immunogenic fragment) [compound 150] | 21 | 5 |
| LTMLLDWRNLYPRKY (Immunogenic fragment) [Peptide 185, fragment of A0023 Der f] | 15 | 5 |
| 149 (SSSQYQMAWAFGNNV; Immunogenic fragment) [compound 149] | 12 | 10 |
| KDSQYLQHFNNAIKQ (Immunogenic fragment) [Peptide 188, fragment of A0023 Der f] | 24 | 10 |
| YITFTEPFMINQLAA (Immunogenic fragment) [Peptide 180, fragment of A0023 Der f/p] | 29 | 10 |
| 98 (WMDMFAEYHKTIAFD; Immunogenic fragment) [compound 98] | 8 | 5 |
| 136 (DKSKKIHYQFEWKFN; Immunogenic fragment) [compound 136] | 2 | 5 |
| 141 (KHEIFVVADLIDRKS; Immunogenic fragment) [compound 141] | 7 | 5 |
| 69 (EPIISFTSIESNKQA; Immunogenic fragment) [compound 69] | 112 | 5 |
| 52 (EIIRRFEAKGFKLVA; Immunogenic fragment) [compound 52] | 40 | 5 |
| 79 (GNDLKNLSSKVLPNL; Immunogenic fragment) [compound 79] | 5 | 5 |
| 93 (QVVQQYHNLIGLPAM; Immunogenic fragment) [compound 93] | 11 | 10 |
| 113 (LCIRWYQLGAFYSFA; Immunogenic fragment) [compound 113] | 40 | 15 |
| 144 (RYHKMHLFGEMTMNI; Immunogenic fragment) [compound 144] | 10 | 10 |
| 107 (NEALKTTLNKRPFII; Immunogenic fragment) [compound 107] | 9 | 5 |
| 110 (ILSDWSSMRWTIPSI; Immunogenic fragment) [compound 110] | 36 | 30 |
| 81 (DDGNLISRALPHLGV; Immunogenic fragment) [compound 81] | 8 | 5 |
| 106 (AALTKLNKRPFIISR; Immunogenic fragment) [compound 106] | 14 | 10 |
| 71 (LLRLEHFYQRFEDPS; Immunogenic fragment) [compound 71] | 8 | 5 |
